Results published in patent US6602710B1, “Screening method for SREBP pathway-specific inhibitors” (Chugai Seiyaku Kabushiki Kaisha, priority 1998, dated 2003).

How the values were obtained:
CHO-K1 cells = assay: amphotericin B cytotoxicity assay (cholesterol synthesis activity) in CHO-K1 cells; assay type: cell-based, Chinese hamster; conditions: 0.1 μg/ml 25-hydroxycholesterol, 24 hours, FIG. 4
DM7 cells = assay: amphotericin B cytotoxicity assay in DM7 cells; assay type: cell-based, Chinese hamster; conditions: compared with 25RA, amphotericin B in PBS, 4 hours, FIG. 3
25RA cells = conditions: amphotericin B at various concentrations in PBS, 4 hours, FIG. 3
[1] = system: LDL receptor activity of 25RA cells; assay: 125I-LDL binding assay (LDL receptor activity) in 25RA cells; assay type: cell-based, Chinese hamster; conditions: simvastatin + (1 μM), sterols −, 24 hours
Procedure: (§1) In order to measure LDL receptor activity, the examples of the present invention use the ^125I-LDL binding assay. However, other suitable means may include incorporation of LDL labeled with a fluorescent lipid DiI into cells or ELISA-mediated measurement of the amount of LDL receptors expressed on the surface of cell membranes, and the screening system of the present invention is not specifically limited to those shown herein.
(§2) On day 0, cells were seeded on 6-well plates at a density of 3×10^4 cells/well, and incubated in F-F12. […] On day 4, the cells were incubated at 4° C. for 2 hours, and then washed twice with PBS. Then, incubation was continued at 4° C. in L-F12 (containing 10 mM Hepes-NaOH, pH 7.4) containing 10 μg/ml ^125I-LDL or 10 μg/ml ^125I-LDL and 400 μg/ml LDL. After 5 hours, the cells were washed with buffer B (150 mM NaCl, 50 mM Tris-HCl, 2 mg/ml BSA, pH 7.4), then buffer C (150 mM NaCl, 50 mM Tris-HCl, pH 7.4) each three times, and incubated with 1 ml of buffer D (50 mM NaCl, 10 mM Hepes-NaOH, 4 mg/ml dextran sulfate, pH 7.4) at 4° C. After one hour, buffer D was recovered and assayed for its radioactivity. The protein level in cells remaining in wells was measured by the BCA method to calculate ^125I-LDL binding per mg of […].

[2] = system: LDL receptor activity of CHO-K1 cells; assay: 125I-LDL binding assay (LDL receptor activity) in CHO-K1 cells; assay type: cell-based, Chinese hamster; conditions: simvastatin + (1 μM), sterols −, 24 hours
Procedure: as §1, §2

Compound: C[C@H](CCCC(C)(C)O)[C@H]1CC[C@H]2[C@@H]3CC=C4C[C@@H](O)CC[C@]4(C)[C@H]3CC[C@]12C [25-hydroxycholesterol]
- cholesterol synthesis activity (amphotericin B cytotoxicity assay) (CHO-K1 cells): inhibited cholesterol synthesis activity

Compound: C[C@@H]1[C@H](O)[C@@H](C)/C=C/C=C/C=C/C=C/C=C/C=C/C=C/[C@H](O[C@@H]2O[C@H](C)[C@@H](O)[C@H](N)[C@@H]2O)C[C@@H]2O[C@](O)(C[C@@H](O)C[C@@H](O)[C@H](O)CC[C@@H](O)C[C@@H](O)CC(=O)O[C@H]1C)C[C@H](O)[C@H]2C(=O)O [amphotericin B]
- survival of cells treated with amphotericin B (DM7 cells): remarkable resistance
- survival of cells treated with amphotericin B (25RA cells): decreased depending on the concentration

Compound: CCC(C)(C)C(=O)O[C@H]1C[C@@H](C)C=C2C=C[C@H](C)[C@H](CC[C@@H]3C[C@@H](O)CC(=O)O3)[C@H]21 [simvastatin]
- Cell surface binding of [125I]LDL [1]: 20.9 ng/mg protein
- Cell surface binding of [125I]LDL [2]: 30.1 ng/mg protein
